The values that follow come from ChEMBL document CHEMBL2375231, “Tricyclic thiazoles are a new class of angiogenesis inhibitors” (Bioorg Med Chem Lett, 2013).

The test system of assay [1] is HUVEC. The assay can be described thus: Antiangiogenic activity against human HUVEC cells assessed as inhibition of [3H]thymidine incorporation incubated for 24 hrs prior to [3H]thymidine addition measured after 6 hrs by microbeta counting analysis. In kind it is functional, cell-based. (Incorporation of labelled thymidine or its analogues reports DNA synthesis.)
Assay [2] concerns HUVEC. The experiment in a line: Selectivity ratio of IC50 for human Jurkat T cells to IC50 for human HUVEC cells. In kind it is functional.
In a further assay the test system is BT-474. The assay can be described thus: Antiproliferative activity against human BT474 cells assessed as inhibition of [3H]thymidine incorporation incubated for 24 hrs prior to [3H]thymidine addition measured after 6 hrs by microbeta counting analysis. In kind it is functional, cell-based.
Assay [3] can be described thus: Antiproliferative activity against human Jurkat T cells assessed as inhibition of [3H]thymidine incorporation incubated for 24 hrs prior to [3H]thymidine addition measured after 6 hrs by microbeta counting analysis. In kind it is functional, cell-based.
For assay [4], the system named is HUVEC. The experiment in a line: Selectivity ratio of IC50 for human BT474 cells to IC50 for human HUVEC cells. In kind it is functional.
In assay [5] the test system is HeLa. The experiment in a line: Selectivity ratio of IC50 for human HeLa cells to IC50 for human HUVEC cells. In kind it is functional.
Assay [6] has as its system HeLa. The experiment in a line: Antiproliferative activity against human HeLa cells assessed as inhibition of [3H]thymidine incorporation incubated for 24 hrs prior to [3H]thymidine addition measured after 6 hrs by microbeta counting analysis. In kind it is functional, cell-based.
For assay [7], the system named is HUVEC. The experiment in a line: Antiangiogenic activity against human HUVEC cells assessed as inhibition of tube formation after 16 to 18 hrs by Calcein-AM staining-based fluorescence microscopic analysis. In kind it is functional, cell-based.
Assay [8] has as its system HUVEC. The assay can be described thus: Antiangiogenic activity against human HUVEC cells assessed as inhibition of tube formation at 5 uM after 16 to 18 hrs by Calcein-AM staining-based fluorescence microscopic analysis. In kind it is functional.

A value given as a limit tells only on which side of the number the result lay.

`CCCCCC(=O)Nc1nc2c(s1)CCc1cc(OC)ccc1-2`: in the assay with HUVEC [1], the IC50 (usually the midpoint of a concentration-inhibition curve) was 3.7 µM.

For the compound `O=C(Nc1nc2c(s1)CSc1ccc(Cl)cc1-2)c1c(F)cccc1F`, the “Ratio IC50” value is given as 3.3 with HUVEC [2], 0.7 in the assay with HUVEC [4] and above 4 in the assay on HeLa [5]. For the same compound, the IC50 in the assay on HUVEC [1] was 5.2 µM; in the assay with BT-474 it was 3.6 µM; in assay [3] it was 17.3 µM; in the assay on HeLa [6] it was above 20 µM.

As for `Nc1nc2c(s1)CCCc1ccccc1-2`, the IC50 with HUVEC [1] was 19.1 µM; in the assay with BT-474, above 20 µM; in assay [3], above 20 µM; in the assay with HeLa [6], above 20 µM.

Regarding `Nc1nc2c(s1)COc1ccccc1-2`, the IC50 with HUVEC [1] was above 10 µM.

As for `Nc1nc2c(s1)CCCC2`, in the assay on HUVEC [1], the IC50 was above 10 µM.

Take `O=C(Nc1nc2c(s1)CSc1ccccc1-2)c1c(F)cccc1F`: the IC50 was 12 µM in the assay with HUVEC [1], 7.2 µM in the assay with BT-474, 11.8 µM in assay [3] and 13.1 µM in the assay with HeLa [6].

`COc1ccc2c(c1)CCc1sc(NCc3ccco3)nc1-2`: in the assay with HUVEC [1], the IC50 came out at 4.5 µM.

Take `Nc1nc2c(s1)Cc1cc(F)ccc1-2`: in the assay with HUVEC [1], the half-inhibitory concentration (IC50) is above 10 µM.

For the compound `CCC(=O)Nc1nc2c(s1)CCc1cc(OC)c(OC)cc1-2`, the IC50 with HUVEC [1] is above 10 µM.

Consider `C#CCOc1ccc(C(=O)Nc2nc3c(s2)CCCc2ccccc2-3)cc1`, for which the IC50 with HUVEC [1] was 7.3 µM.

In the case of `CCC(=O)N(C(=O)CC)c1nc2c(s1)CCCc1ccccc1-2`, the “Ratio IC50” value in the assay on HUVEC [2] is 1.9; in the assay with HUVEC [4] it was above 13; in the assay with HeLa [5], 4. The IC50 with HUVEC [1] is 1.5 µM; in the assay on BT-474, above 20 µM; in assay [3] it was 2.8 µM; with HeLa [6], 5.9 µM.

In the case of `CCC(=O)Nc1nc2c(s1)COc1ccc(F)cc1-2`, in the assay on HUVEC [1], the 50% inhibitory concentration (IC50) is above 10 µM.

Take `CCOC(=O)Nc1nc2c(s1)CSc1ccc(Cl)cc1-2`: the “Ratio IC50” value with HUVEC [2] is 2.3; in the assay with HUVEC [4], 2.2; with HeLa [5], 2.3. Further, the IC50 turned out to be 2.8 µM with HUVEC [1], 6.2 µM in the assay on BT-474, 6.3 µM in [3] and 6.5 µM in the assay on HeLa [6].

On to `Nc1nc(-c2ccc(Cl)cc2)cs1`, for which, in the assay with HUVEC [1], the IC50 is above 10 µM.

Regarding `Nc1nc2c(s1)CSc1ccc(Cl)cc1-2`, the “Ratio IC50” value is recorded as 0.8 in the assay with HUVEC [2], 2 in the assay with HUVEC [4] and 6.3 in the assay on HeLa [5]. Further, the IC50 in the assay with HUVEC [1] was found to be 1.9 µM; in the assay with BT-474 it was 3.8 µM; in assay [3], 1.6 µM; in the assay with HeLa [6], 11.9 µM.

With `[N-]=[N+]=NCCCCCCNc1nc2c(s1)CSc1ccccc1-2`, in the assay on HUVEC [1], the 50% inhibitory concentration (IC50) stood at 5.9 µM.

For the compound `COc1ccc2c(c1)CCc1sc(NC(C)=O)nc1-2`, the IC50 with HUVEC [1] was above 10 µM.

Take `Nc1nc2c(s1)CCc1ccccc1-2`: the IC50 in the assay on HUVEC [1] was above 10 µM.

In the case of `COc1ccc2c(c1)Cc1sc(NC(C)=O)nc1-2`, the IC50 in the assay on HUVEC [1] was determined as 4.4 µM.

As for `CC(=O)Nc1nc(-c2ccc(Cl)cc2)cs1`, the IC50 in the assay on HUVEC [1] is above 10 µM.

For the compound `CCC(=O)Nc1nc2c(s1)CCCC2`, the IC50 with HUVEC [1] is above 10 µM.

As for `COc1ccc2c(c1)CCc1sc(N)nc1-2`, the 50% inhibitory concentration (IC50) in the assay on HUVEC [1] is above 10 µM.

Turning to `CCC(=O)Nc1nc2c(s1)CCCc1ccccc1-2`, the “Ratio IC50” value with HUVEC [2], in the assay on HUVEC [4] and in the assay with HeLa [5] was above 5 each time. The IC50 in the assay on HUVEC [1] was 3.7 µM; in the assay with BT-474, above 20 µM; in assay [3] it was above 20 µM; with HeLa [6], above 20 µM.

Consider `CCC(=O)Nc1nc2c(s1)Cc1cc(F)ccc1-2`, for which the IC50 with HUVEC [1] is above 10 µM.

With `Clc1ccc2c(c1)-c1nc(NCc3ccco3)sc1CS2`, the “Ratio IC50” value stood at 2.3 in the assay with HUVEC [2], 2.1 in the assay with HUVEC [4] and 9.4 with HeLa [5]. Besides, the IC50 worked out at 1.1 µM in the assay with HUVEC [1], 2.3 µM in the assay with BT-474, 2.5 µM in assay [3] and 10.3 µM in the assay with HeLa [6]. Moreover, the inhibition (commonly the relative decrease from the control value, in per cent) with HUVEC [7] is “Dose-dependent effect”.

Turning to `Nc1nc2c(s1)-c1ccccc1CC2`, the IC50 with HUVEC [1] is above 10 µM.

`CC(=O)Nc1nc2c(s1)CCc1ccccc1-2`: the IC50 with HUVEC [1] is above 10 µM.

`COc1cccc2c1CCc1sc(NC(C)=O)nc1-2`: the IC50 with HUVEC [1] was above 10 µM.

`Nc1nc2c(s1)COc1ccc(F)cc1-2`: in the assay on HUVEC [1], the IC50 was above 10 µM.

Turning to `O=C(Nc1nc2c(s1)CCCc1ccc(F)cc1-2)c1c(F)cccc1F`, the IC50 in the assay with HUVEC [1] was 13.5 µM; in the assay on BT-474, above 20 µM; in [3], above 20 µM; in the assay on HeLa [6], above 20 µM.

Take `Nc1nc2c(s1)CSc1ccccc1-2`: the entries for the “Ratio IC50” value with HUVEC [2], with HUVEC [4] and in the assay with HeLa [5] were 0.5, 4.3 and 3.6, respectively. The half-maximal inhibitory concentration (IC50) came to 1.9 µM in the assay on HUVEC [1], 8.2 µM in the assay on BT-474, 0.9 µM in assay [3] and 6.8 µM in the assay on HeLa [6].

Take `COc1cccc2c1CCc1sc(N)nc1-2`: in the assay with HUVEC [1], the IC50 is above 10 µM.

As for `C#CCOc1ccc(C(=O)Nc2nc3c(s2)CSc2ccccc2-3)cc1`, the entries for the “Ratio IC50” value in the assay with HUVEC [2], in the assay on HUVEC [4] and with HeLa [5] were 1.6, 0.1 and 1.7, respectively. Further, the IC50 in the assay with HUVEC [1] was 2.9 µM; in the assay with BT-474 it was 0.3 µM; in assay [3], 4.6 µM; with HeLa [6] it was 5 µM.

With `Nc1nc2c(s1)CCCc1ccc(F)cc1-2`, the IC50 with HUVEC [1] was 14.8 µM; in the assay with BT-474 it was above 20 µM; in assay [3], above 20 µM; with HeLa [6], 16.2 µM.

Take `Nc1nc2c(s1)CCOc1cc3c(cc1-2)OCO3`: the IC50 in the assay on HUVEC [1] was determined as 5.1 µM.

Take `COc1cc2c(cc1OC)-c1nc(N)sc1CC2`: in the assay on HUVEC [1], the IC50 was above 10 µM.

Regarding `CCCCCC(=O)Nc1nc2c(s1)CCc1ccccc1-2`, the IC50 with HUVEC [1] is 3 µM.

For `O=C(Nc1nc2c(s1)CCCc1ccccc1-2)c1c(F)cccc1F`, the results for the “Ratio IC50” value in the assay on HUVEC [2], with HUVEC [4] and with HeLa [5] were above 13, above 13 and 10, respectively. For the same compound, the 50% inhibitory concentration (IC50) is 1.5 µM with HUVEC [1], above 20 µM in the assay with BT-474, above 20 µM in assay [3] and 15.2 µM in the assay on HeLa [6]. Also, in the assay on HUVEC [8], the inhibition at 5 µM was 75%. In the assay on HUVEC [7], the inhibition entry is “Dose-dependent effect”.

For the compound `COc1ccc(-c2csc(NC(C)=O)n2)cc1OC`, the IC50 with HUVEC [1] is above 10 µM.

In the case of `CCOC(=O)Nc1nc2c(s1)CCCc1ccccc1-2`, the IC50 is 9.2 µM in the assay on HUVEC [1], above 20 µM in the assay on BT-474, above 20 µM in assay [3] and above 20 µM in the assay with HeLa [6].

As to `CC(=O)Nc1nc2c(s1)-c1ccccc1CC2`, the IC50 with HUVEC [1] is above 10 µM.

Turning to `CCC(=O)Nc1nc2c(s1)COc1ccccc1-2`, the IC50 with HUVEC [1] was above 10 µM.

On to `COc1ccc2c(c1)Cc1sc(N)nc1-2`, for which the half-inhibitory concentration (IC50) in the assay with HUVEC [1] is above 10 µM.

As to `COc1ccc2c(c1)-c1nc(NC(C)=O)sc1CC2`, the concentration for half-maximal inhibition (IC50) with HUVEC [1] worked out at 4.2 µM.

For `COc1ccc2c(c1)-c1nc(N)sc1CC2`, the IC50 with HUVEC [1] is above 10 µM.

`COc1ccc(-c2csc(N)n2)cc1OC`: the IC50 in the assay with HUVEC [1] is above 10 µM.

For the compound `CCC(=O)Nc1nc2c(s1)CSc1ccccc1-2`, the entries for the “Ratio IC50” value in the assay on HUVEC [2], in the assay on HUVEC [4] and in the assay with HeLa [5] were 2.5, 3 and 4, respectively. The half-inhibitory concentration (IC50) in the assay with HUVEC [1] came out at 2 µM; in the assay with BT-474 it was 5.9 µM; in assay [3], 4.9 µM; in the assay on HeLa [6], 8 µM.
